Measured values published in ChEMBL document CHEMBL3808370, “Nortriketones: Antimicrobial Trimethylated Acylphloroglucinols from Ma̅nuka (Leptospermum scoparium)” (J Nat Prod, 2016).
Values after ≈ are worked out from the molar mass of the structure shown. Active and inactive are the calls of the source. The calls are words filed in the database; no cut-off is given here.

Legend:
Enterococcus faecalis = assay: Antibacterial activity against vancomycin-resistant Enterococcus faecalis incubated for 18 to 24 hrs by broth microdilution method; type: functional
Staphylococcus aureus = assay: Antibacterial activity against methicillin-resistant Staphylococcus aureus by two-fold broth dilution method; type: functional
Escherichia coli = assay: Antibacterial activity against Escherichia coli; type: functional
[1] = molecular target: T1, 4-hydroxyphenylpyruvate dioxygenase (Arabidopsis thaliana) (UniProt P93836); assay: Inhibition of recombinant Arabidopsis thaliana HPPD overexpressed in Escherichia coli JM105 cells at 100 uM using 4-HPP as substrate preincubated for 15 mins followed by substrate addition and subsequent incubation for 15 mins by HPLC analysis
T1 sequence (whole entry): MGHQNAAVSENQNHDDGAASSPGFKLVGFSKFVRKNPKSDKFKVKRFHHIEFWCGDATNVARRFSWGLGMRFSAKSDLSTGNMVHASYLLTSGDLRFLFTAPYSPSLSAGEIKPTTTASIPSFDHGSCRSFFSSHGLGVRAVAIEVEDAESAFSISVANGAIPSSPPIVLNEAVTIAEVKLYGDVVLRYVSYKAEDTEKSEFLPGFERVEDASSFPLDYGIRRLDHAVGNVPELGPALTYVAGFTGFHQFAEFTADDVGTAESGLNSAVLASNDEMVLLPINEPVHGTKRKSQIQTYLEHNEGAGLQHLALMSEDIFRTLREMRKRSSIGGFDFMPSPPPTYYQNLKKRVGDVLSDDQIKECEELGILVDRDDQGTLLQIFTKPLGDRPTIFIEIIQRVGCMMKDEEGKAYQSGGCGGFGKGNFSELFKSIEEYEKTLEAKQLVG

[2] = molecular target: T2, 4-hydroxyphenylpyruvate dioxygenase (Arabidopsis thaliana, UniProt P93836); assay: Inhibition of recombinant Arabidopsis thaliana HPPD overexpressed in Escherichia coli JM105 cells using 4-HPP as substrate preincubated for 15 mins followed by substrate addition and subsequent incubation for 15 mins by HPLC analysis; details: read-out: I50
T2 sequence (P93836 whole entry): T1 sequence (whole entry)

| inhibition [1] | SMILES | MIC (Enterococcus faecalis) [µg/mL] | MIC (Staphylococcus aureus) [µg/mL] | MIC (Escherichia coli) [µg/mL] | IC50 [2] [nM] |
| --- | --- | --- | --- | --- | --- |
| – | CC1(C)C(=O)C(C(=O)CCc2ccccc2)=C(O)C(C)(C)C1=O | 6 (≈ 19.1 µM) | 6 (≈ 19.1 µM) | > 512 | 750 |
| inactive | CC1=C(O)C(C)(C)C(=O)C(C(=O)CC(C)C)=C1O | – | – | – | – |
| inactive | CC1=C(O)C(C)(C)C(=O)C(C(=O)C(C)C)=C1O | – | – | – | – |

| SMILES | inhibition [1] | MIC (Enterococcus faecalis) [µg/mL] | MIC (Staphylococcus aureus) [µg/mL] | MIC (Escherichia coli) [µg/mL] | IC50 [2] [nM] |
| --- | --- | --- | --- | --- | --- |
| CC1=C(O)C(C)(C)C(=O)C(C(=O)CCc2ccccc2)=C1O | inactive | 64 (≈ 213 µM) | 64 (≈ 213 µM) | > 512 | – |
